# Experimental data taken from paper PMC10700596 (Nature Communications, 2023).
# Where “and” joins values, the source holds several entries; their conditions need not be identical. Equal entries are not always repeated.
# What was measured:
# Format in all cases: binding
# EP1R = EP1R (Homo sapiens, UniProt P34995); experiment: Radioligand (3H-PGE2) displacement assay at EP1R
# ABL1-phosphorylated = ABL1-phosphorylated (Homo sapiens, UniProt P00519); experiment: biochemical; conditions: 10000 nM; read-out: Percent Control
# Sequence of ABL1-phosphorylated (P00519 whole entry): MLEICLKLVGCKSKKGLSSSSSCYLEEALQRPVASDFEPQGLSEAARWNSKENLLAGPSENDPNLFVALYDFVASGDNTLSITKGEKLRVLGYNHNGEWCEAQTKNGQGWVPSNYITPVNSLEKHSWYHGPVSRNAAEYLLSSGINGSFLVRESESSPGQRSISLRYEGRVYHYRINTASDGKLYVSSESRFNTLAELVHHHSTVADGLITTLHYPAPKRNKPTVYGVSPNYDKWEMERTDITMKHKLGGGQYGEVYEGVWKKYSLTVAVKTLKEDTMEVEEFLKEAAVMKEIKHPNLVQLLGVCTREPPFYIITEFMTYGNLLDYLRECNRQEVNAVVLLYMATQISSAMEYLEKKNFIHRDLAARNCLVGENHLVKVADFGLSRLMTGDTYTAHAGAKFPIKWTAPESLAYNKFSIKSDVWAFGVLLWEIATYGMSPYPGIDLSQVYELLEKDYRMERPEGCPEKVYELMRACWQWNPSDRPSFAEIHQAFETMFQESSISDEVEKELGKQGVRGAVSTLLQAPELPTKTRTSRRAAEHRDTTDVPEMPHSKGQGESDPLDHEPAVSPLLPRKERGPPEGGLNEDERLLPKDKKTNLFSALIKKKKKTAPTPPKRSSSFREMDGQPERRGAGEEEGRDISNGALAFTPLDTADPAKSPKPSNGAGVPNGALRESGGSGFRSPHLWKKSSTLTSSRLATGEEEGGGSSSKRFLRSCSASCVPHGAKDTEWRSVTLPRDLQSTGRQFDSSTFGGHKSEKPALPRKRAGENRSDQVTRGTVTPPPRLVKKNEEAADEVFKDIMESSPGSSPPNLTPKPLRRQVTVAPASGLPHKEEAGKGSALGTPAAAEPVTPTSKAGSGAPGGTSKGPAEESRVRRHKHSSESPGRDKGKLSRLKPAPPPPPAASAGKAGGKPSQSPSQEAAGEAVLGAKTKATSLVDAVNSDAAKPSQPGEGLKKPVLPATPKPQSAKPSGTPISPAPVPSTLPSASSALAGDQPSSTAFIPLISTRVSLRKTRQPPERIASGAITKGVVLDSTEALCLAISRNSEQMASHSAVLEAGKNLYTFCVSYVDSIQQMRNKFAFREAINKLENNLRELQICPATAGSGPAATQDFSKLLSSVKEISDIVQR
# ALK = ALK (Homo sapiens, UniProt Q9UM73); experiment: biochemical; conditions: 10000 nM; read-out: Percent Control
# Sequence of ALK (Q9UM73 19-1620): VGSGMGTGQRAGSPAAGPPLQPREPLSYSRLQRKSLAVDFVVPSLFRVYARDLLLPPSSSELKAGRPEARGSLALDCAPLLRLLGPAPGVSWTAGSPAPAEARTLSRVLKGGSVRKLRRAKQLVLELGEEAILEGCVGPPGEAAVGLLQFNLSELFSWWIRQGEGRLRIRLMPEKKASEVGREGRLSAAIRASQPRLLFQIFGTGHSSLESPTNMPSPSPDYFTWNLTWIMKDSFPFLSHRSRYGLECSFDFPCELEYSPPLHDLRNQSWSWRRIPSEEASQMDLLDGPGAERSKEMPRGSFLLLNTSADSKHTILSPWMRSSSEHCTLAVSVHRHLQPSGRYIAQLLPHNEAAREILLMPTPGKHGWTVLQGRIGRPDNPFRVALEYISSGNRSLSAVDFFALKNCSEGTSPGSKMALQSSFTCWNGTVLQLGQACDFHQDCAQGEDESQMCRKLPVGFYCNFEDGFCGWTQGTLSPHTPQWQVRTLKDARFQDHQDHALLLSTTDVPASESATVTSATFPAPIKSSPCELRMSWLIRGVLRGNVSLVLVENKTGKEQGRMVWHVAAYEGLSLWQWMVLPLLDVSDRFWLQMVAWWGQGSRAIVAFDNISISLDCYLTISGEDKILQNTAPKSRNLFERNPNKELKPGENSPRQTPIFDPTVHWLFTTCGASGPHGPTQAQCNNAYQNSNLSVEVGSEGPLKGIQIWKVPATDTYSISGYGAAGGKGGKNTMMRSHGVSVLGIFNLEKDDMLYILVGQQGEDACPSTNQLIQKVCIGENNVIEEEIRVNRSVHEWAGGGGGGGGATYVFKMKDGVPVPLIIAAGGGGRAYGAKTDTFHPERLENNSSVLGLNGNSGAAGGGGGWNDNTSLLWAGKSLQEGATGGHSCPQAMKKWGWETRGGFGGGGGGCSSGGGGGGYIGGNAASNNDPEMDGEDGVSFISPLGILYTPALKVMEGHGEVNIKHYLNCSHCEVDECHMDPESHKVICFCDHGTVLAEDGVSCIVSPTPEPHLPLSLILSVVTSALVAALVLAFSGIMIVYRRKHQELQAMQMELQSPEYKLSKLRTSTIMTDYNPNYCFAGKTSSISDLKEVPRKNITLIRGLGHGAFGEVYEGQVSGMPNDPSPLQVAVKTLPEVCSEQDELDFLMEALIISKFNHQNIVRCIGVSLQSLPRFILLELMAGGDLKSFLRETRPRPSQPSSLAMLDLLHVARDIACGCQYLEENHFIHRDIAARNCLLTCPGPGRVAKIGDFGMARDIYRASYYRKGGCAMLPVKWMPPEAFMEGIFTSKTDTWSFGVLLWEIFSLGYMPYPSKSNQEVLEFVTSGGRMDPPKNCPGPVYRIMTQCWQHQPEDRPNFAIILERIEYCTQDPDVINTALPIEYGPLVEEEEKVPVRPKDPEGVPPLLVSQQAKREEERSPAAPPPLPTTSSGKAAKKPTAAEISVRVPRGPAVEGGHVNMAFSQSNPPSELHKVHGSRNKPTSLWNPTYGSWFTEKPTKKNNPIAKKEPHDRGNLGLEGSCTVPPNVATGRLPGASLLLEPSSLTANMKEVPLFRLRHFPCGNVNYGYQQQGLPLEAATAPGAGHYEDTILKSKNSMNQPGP
# AURKB = AURKB (Homo sapiens, UniProt Q96GD4); experiment: biochemical; conditions: 10000 nM; read-out: Percent Control
# Sequence of AURKB (Q96GD4 whole entry): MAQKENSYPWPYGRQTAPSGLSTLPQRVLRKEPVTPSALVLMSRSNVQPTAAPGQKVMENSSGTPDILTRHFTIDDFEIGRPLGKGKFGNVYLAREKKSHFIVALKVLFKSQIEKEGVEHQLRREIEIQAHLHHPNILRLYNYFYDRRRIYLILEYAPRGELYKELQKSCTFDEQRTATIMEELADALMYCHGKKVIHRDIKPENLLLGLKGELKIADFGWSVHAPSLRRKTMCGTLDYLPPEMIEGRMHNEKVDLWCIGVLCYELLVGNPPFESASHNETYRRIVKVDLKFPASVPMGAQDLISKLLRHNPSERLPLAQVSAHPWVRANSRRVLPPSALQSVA
# Source text: (1 picture or pasted object on this page, not shown here)
# BMPR2 = BMPR2 (Homo sapiens, UniProt Q13873); experiment: biochemical; conditions: for Signal (qPCR): BMPR2
# Sequence of BMPR2 (Q13873 27-1038): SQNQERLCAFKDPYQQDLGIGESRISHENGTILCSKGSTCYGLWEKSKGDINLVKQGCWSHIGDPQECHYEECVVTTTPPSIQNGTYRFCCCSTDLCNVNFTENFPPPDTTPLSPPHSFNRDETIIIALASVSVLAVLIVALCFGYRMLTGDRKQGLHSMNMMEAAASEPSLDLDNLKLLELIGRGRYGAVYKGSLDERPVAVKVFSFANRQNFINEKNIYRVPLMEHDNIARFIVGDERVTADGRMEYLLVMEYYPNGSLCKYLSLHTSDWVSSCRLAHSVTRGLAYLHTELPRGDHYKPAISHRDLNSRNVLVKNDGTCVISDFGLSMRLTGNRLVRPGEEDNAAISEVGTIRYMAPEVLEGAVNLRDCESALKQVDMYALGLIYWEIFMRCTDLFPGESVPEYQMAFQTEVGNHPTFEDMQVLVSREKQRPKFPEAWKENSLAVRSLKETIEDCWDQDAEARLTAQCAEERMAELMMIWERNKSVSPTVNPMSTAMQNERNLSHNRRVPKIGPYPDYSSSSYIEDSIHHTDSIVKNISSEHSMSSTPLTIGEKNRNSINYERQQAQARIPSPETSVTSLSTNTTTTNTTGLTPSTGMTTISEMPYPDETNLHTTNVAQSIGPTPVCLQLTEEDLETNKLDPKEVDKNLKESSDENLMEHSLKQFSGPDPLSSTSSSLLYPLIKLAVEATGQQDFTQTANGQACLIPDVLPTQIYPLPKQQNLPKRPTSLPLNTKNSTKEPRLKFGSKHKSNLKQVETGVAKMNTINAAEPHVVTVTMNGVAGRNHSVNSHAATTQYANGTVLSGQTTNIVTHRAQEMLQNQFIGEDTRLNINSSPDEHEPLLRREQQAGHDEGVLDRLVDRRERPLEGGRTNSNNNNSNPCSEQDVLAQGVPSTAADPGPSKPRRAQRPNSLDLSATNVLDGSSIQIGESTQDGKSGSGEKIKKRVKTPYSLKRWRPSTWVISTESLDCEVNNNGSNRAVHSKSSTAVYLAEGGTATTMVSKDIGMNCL
# Source text: Supplementary Figure 7: Non-GPCR off-target screening for 74. a)-e) Dose-response curves of 74 at
# proliferator-activated receptor gamma (PPARγ, Eurofins item G124). Data in a)-e) and g)-i) represent two
# technical replicates. Source data are provided as a Source Data file.
# CDK9 = CDK9 (Homo sapiens, UniProt P50750); experiment: biochemical; conditions: 10000 nM; read-out: Percent Control
# Sequence of CDK9 (P50750 whole entry): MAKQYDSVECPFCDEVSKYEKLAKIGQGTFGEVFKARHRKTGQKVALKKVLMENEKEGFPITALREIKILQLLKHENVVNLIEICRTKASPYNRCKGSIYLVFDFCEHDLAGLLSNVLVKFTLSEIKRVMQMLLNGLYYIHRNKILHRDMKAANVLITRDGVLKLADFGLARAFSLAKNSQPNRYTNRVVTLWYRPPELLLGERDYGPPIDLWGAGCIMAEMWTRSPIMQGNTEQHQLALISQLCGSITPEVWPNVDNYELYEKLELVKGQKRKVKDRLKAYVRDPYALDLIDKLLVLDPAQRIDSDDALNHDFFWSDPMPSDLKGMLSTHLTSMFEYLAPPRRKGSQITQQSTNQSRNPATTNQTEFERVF
# CSNK1D = CSNK1D (Homo sapiens, UniProt P48730); experiment: biochemical; conditions: 10000 nM; read-out: Percent Control
# Sequence of CSNK1D (P48730 whole entry): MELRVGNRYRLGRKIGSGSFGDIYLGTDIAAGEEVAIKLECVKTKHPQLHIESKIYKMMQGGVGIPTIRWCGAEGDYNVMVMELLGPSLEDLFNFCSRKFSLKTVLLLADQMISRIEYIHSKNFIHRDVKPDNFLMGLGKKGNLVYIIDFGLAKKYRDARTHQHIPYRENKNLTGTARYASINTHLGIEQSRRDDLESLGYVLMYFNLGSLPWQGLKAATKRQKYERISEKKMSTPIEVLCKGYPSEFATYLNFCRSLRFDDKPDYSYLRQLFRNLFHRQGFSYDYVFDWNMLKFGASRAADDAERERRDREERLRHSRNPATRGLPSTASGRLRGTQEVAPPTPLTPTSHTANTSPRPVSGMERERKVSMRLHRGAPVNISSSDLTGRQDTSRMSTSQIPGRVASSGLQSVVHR
# TSSK1B = TSSK1B (Homo sapiens, UniProt Q9BXA7); experiment: biochemical; conditions: 10000 nM; read-out: Percent Control
smiles,measurement,setting,value
"O=C(O)C1CCC2(CC1)CC(Nc1ncnc3[nH]c4c(F)cccc4c13)C2 (stereo not shown) [Compound 74, OC(=O)C1CCC2(CC(C2)NC=3N=CN=C4NC=5C(F)=CC=CC5C34)CC1]",binding to EP1 receptor,EP1R,no binding
same,remaining activity at 10 µM,ABL1-phosphorylated,63%
same,remaining activity at 10 µM,ALK,14%
same,remaining activity at 10 µM,AURKB,8.2%
same,remaining activity at 10 µM,"BMPR2; 10000 nM, read-out: Percent Control",0%
same,Kd,"BMPR2; BMPR2, dose-response",30 nM
same,Signal (qPCR),BMPR2; compound 1e-5 nM,3.65e-5 and 5.32e-5
same,Signal (qPCR),BMPR2; compound 0.0001 nM,5.46e-5 and 5.63e-5
same,Signal (qPCR),BMPR2; compound 0.001 nM,6.07e-5 and 6.11e-5
same,Signal (qPCR),BMPR2; compound 0.169 nM,4.64e-5 and 4.8e-5
same,Signal (qPCR),BMPR2; compound 0.508 nM,4.94e-5 and 5.14e-5
same,Signal (qPCR),BMPR2; compound 1.52 nM,5.5e-5 and 5.39e-5
same,Signal (qPCR),BMPR2; compound 4.57 nM,5.07e-5 and 5.31e-5
same,Signal (qPCR),BMPR2; compound 13.7 nM,3.76e-5 and 3.48e-5
same,Signal (qPCR),BMPR2; compound 41.2 nM,2.19e-5 and 2.2e-5
same,Signal (qPCR),BMPR2; compound 123 nM,7.98e-6 and 7.65e-6
same,Signal (qPCR),BMPR2; compound 370 nM,1.69e-6 and 1.57e-6
same,Signal (qPCR),BMPR2; compound 3330 nM,4.07e-8 and 4.89e-8
same,Signal (qPCR),BMPR2; compound 10000 nM,1.28e-8 and 1.26e-8
same,remaining activity at 10 µM,CDK9,97%
same,remaining activity at 10 µM,CSNK1D,3.2%
same,remaining activity at 10 µM,TSSK1B,52%
